Assay results reported in US11226332B2, “Method for the detection, preparation and depletion of CD4+ t lymphocytes” (IMCYSE SA, priority 2013, dated 2022).

Legend:
[1] = tested on: human peripheral blood CD4+ T cells; assay: DQ8 tetramers loaded with insulin B9-23 peptide, facs sorting of CD4+ T cells for TCR alpha chain sequencing; assay type: cell-based; conditions: control SEQ ID 10 without thioreductase motif
Source text: Expression of human DQ8 MHC class II molecule is associated with reactivity to a major epitope of insulin, located in the beta chain of insulin within the amino acid sequence 9-23. Human peripheral blood naïve T cell repertoire frequently contains cells expressing germline encoded alpha chain sequences, called Trav13-1, associated with various beta chain sequences, but which are sufficient as to confer a low affinity reaction with the B9-23 insulin epitope when presented by DQ8.
Peptides encompassing the sequences of the B9-23 epitope with a thioreductase motif and a one amino acid glycine linker are produced, namely […] INS9-23 (SEQ ID 9) and control peptides without thioreductase motif and linker […] INS9-23 (SEQ ID 10)
Tetramers of DQ8 are produced and loaded with each one of peptides of SEQ ID 9 or SEQ ID 10. Loaded tetramers are incubated with human peripheral blood CD4+ T cells. Cells are washed, analysed by facs and sorted out. Cells are then washed from tetramers and used for TCR alpha chain sequencing using corresponding primers.

[2] = tested on: CD4+ T cells from peripheral blood; assay: MHC class II tetramers loaded with influenza hemagglutinin peptide, counting of CD4+ T cells by facs before and after vaccination; assay type: cell-based; conditions: fluorescence-labeled MHC class II tetramers loaded with peptide; compared with peptide of SEQ ID 4 without thioreductase motif
[3] = tested on: MOG-specific naïve CD4+ T cells; assay: DRB1*1501 MHC class II tetramers loaded with MOG peptide, detection of naïve CD4+ T cells by facs; assay type: cell-based, human; conditions: DRB1*1501 tetramers loaded with peptide, 2 h at 37° C, control: same peptide without thioreductase motif (SEQ ID NO:2)
Procedure: Naïve CD4+ T cells are prepared from the peripheral repertoire of DRB1*1501+ subjects susceptible to suffer from multiple sclerosis, using magnetic beads to remove CD4(−) cells and memory cells, as described in the art. Tetramers of DRB1*1501 are made as known in the art (Kasprowicz V et al. (2006) J. Virol. 80, 11209-112017), including a fluorescent label such as Ficoerythrin. A synthetic peptide is produced, which encompasses the corresponding class II-restricted MOG
T cell epitope and a thioreductase motif CGPCSRVVHLYRNGK D [SEQ ID NO: 1], which corresponds to amino acid residues 47-58 of the MOG protein.
Tetramers are loaded with peptide of SEQ ID 1 overnight at room temperature in the appropriate buffer conditions as known in the art. Loaded tetramers are then washed and incubated with naïve CD4+ T cells for 2 h at 37° C. The suspension is then read with a fluorescence-activated cell sorting (facs) system and the proportion of naïve cells specific to the MOG peptide evaluated Control experiments are performed with MHC complex with the same peptide without thioreductase motif. SRVVHLYRNGKD [SEQ ID NO:2].

[4] = tested on: GAD65-specific CD4+ T cells; assay: Sorting of GAD65-specific CD4+ T cells from NOD mouse spleen with peptide-loaded class II tetramers and expansion to cytolytic CD4+ T cells; assay type: cell-based, NOD mice
Procedure: NOD (non-obese diabetic) mice spontaneously develop diabetes by progressive destruction of insulin-producing Langerhans islet cells. NOD mice are considered as a representative pre-clinical model of human IDDM. Effector CD4+ T cells against GAD65 are prepared from the spleen of diseased animals by first depleting non-CD4+ cells. CD4+ cells are then incubated with class II tetramers loaded with a GAD65 class II restricted epitope encompassing a thioreductase motif in flanking residues.
The sequence of the peptide is therefore CRLCKVAPVIKARMM (GAD65 524-543) (SEQ ID NO: 7) A peptide of GAD65 without thioreductase motif is prepared for control experiments KVAPVIKARMM (SEQ ID NO: 8).
Cells are then sorted by facs according to their binding of peptide-loaded tetramers. Positive cells are then maintained in culture and stimulated with APC loaded with peptide of SEQ ID 7 to generate cytolytic CD4+ T cells, as described in the WO2008017517 patent application.

[5] = tested on: Dby-specific CD4+ T cells; assay: Depletion of Dby-specific CD4+ T cells with peptide-loaded H-2b class II beads, then male bone marrow grafting in reconstituted RAG2 KO mice; assay type: in vivo, mouse; conditions: RAG2 KO mice reconstituted with female H-2b lymphocytes depleted on beads coated with class II H-2b molecules loaded with peptide
Source text: In the mouse model, male bone marrow is rejected by syngeneic females due to recognition of H-Y encoded antigens among which the Dby protein plays a major role. A majority of CD4+ T cells recognize an epitope made of residues FNSNRANSS of the murine Dby antigen which is encoded by the […]
A synthetic peptide made of this class II restricted T cell epitope with a thioreductase motif is produced, corresponding to CHGCFNSNRANSS [SEQ ID NO:5] and the corresponding Dby peptide in natural configuration is produced as a control, namely […].
Lymphocytes from the spleen of female H-2b mice are prepared by magnetic bead sorting. The cells are then incubated with a suspension of beads coated with class II H-2b molecules and loaded with peptide of SEQ ID 5 or of SEQ ID 6. Lymphocytes T cells, containing all CD4+ T cells not retained on beads and CD8+ T cells, are used to reconstitute RAG2 KO mice, which are then engrafted by the bone marrow of a male syngeneic donor. RAG2 KO mice have no functional adaptive immune system and are therefore unable to reject the graft. Rejection is thereby depending only of cells present in the passively transferred population.

CGHCGSHLVEALYLVCGERG (redox motif + glycine linker+ insulin epitope) [SEQ ID 9]
number of cells obtained by tetramer sorting for TCR sequencing [1]: obtained in sufficient number as to allow TCR sequencing

CGHCKYVKQNTLKHEMAGG (redox motif + influenza hemaglutinin epitope) [SEQ ID 3]
number of CD4+ T cells detected in peripheral blood [2]: higher number of CD4+ T cells are detected

CGPCSRVVHLYRNGKD [SEQ ID 1]
detection of naïve CD4+ T cells specific to the MOG sequence [3]: able to detect naïve CD4+ T cells

CRLCKVAPVIKARMM (redox motif + GAD65 epitope) [SEQ ID 7]
yield of GAD65-specific cytolytic CD4+ T cells ([4]; tetramer sorting compared with the method of WO2008017517 (peptide added to T cells from spleen of NOD mice)): higher
yield of GAD65-specific cytolytic CD4+ T cells ([4]; tetramers loaded with peptide of SEQ ID 7 instead of peptide of SEQ ID 8): significantly increased

FNSNRANSS (Dby epitope) [SEQ ID 6]
graft acceptance (male bone marrow) [5]: no improvement of graft acceptance
